Source: article PMC7954794, “Protein context shapes the specificity of SH3 domain-mediated interactions in vivo” (Nature Communications, 2021)

Columns and labels:
Format in all cases: cell-based, Saccharomyces cerevisiae
ABP1 = experiment: DHFR-PCA on solid medium, bait ABP1 (Fig. 1B); conditions: bait ABP1, label = prey; 2-4 replicates
Description: (§1) Supplement 41467_2021_21873_MOESM8_ESM.xlsx, sheet "Fig1B" | column: medsize; medrep; Ratio; Score

[1] = test system: 575 putative partners (preys) of 22 WT SH3-containing proteins; experiment: DHFR-PCA on solid medium, WT and SH3-deleted baits (Fig. 1B); design: key to Score: 0: SH3-independent; 1: SH3-dependent PPIs; 2: SH3-inhibited PPIs; conditions: for medrep (log2 median colony size normalized to plate background, PCA score): label = prey
Description: To assess the requirement of SH3 domains for PPIs in vivo, we first measured binary interactions between 22 WT SH3-containing proteins (Supplementary Fig. 1A) as baits and 575 putative partners from their interconnected signaling networks using the dihydrofolate reductase protein–fragment complementation assay (DHFR-PCA) in the budding yeast Saccharomyces cerevisiae. About 33% (202/607) of the PPIs detected were described before, mostly by direct methods (Supplementary Fig. 1B, C)[11]. We repeated the experiments with baits in which the SH3s were individually replaced with a flexible linker by genome editing (SH3 domain deletion/stuffing, Fig. 1A). The stuffer DNA sequence ([…]) codes for a small flexible poly-Gly with Ser peptide ([…]) that is inspired by previous experiments[12],[13]. About a third of the SH3-containing protein interactome is qualitatively or quantitatively SH3-dependent (171 PPIs out of 607, Fig. 1B and Supplementary Fig. 1B, C). We validated the vast majority of the quantitative changes in low-throughput experiments and excluded that this is simply due to changes in protein abundance in most cases (Supplementary Fig. 1D–G). SH3-binding motifs[14] are more frequent in the SH3-dependent PPI partners when compared to sequences from random proteins, SH3-independent PPI partners or PPI partners that are stronger or gained following SH3 deletions (p values = 1.5 × 10^−17, 0.0038 and 2.1 × 10^−08, respectively; Mann–Whitney test, one-tailed, Fig. 1C). The changes we measure are therefore enriched for PPIs that depend on the direct interactions of the domains with the PPI partners.
The complete list of strains, primers, and gRNAs used in this study can be found in Supplementary Tables 1–3. All constructed yeast strains were validated by polymerase chain reaction (PCR) and confirmed by Sanger sequencing of the locus of interest. Bait strains for the DHFR-PCA experiments were constructed as follows. The genes of interest were fused at their genomic 3′ end by replacing the stop codon with a linker ([…]), the DHFR F[1,2] followed by a smaller linker (GGGGS), a 1× FLAG tag ([…]) and the NATMX4 resistance cassette via homologous recombination (all amplified from pAG25-DHFR[1,2]-linker-FLAG). The set of 615 prey strains (DHFR F[3] fusions in the BY4742 background) were retrieved from the Yeast Protein Interactome Collection[43] with the exception of 73 that were reconstructed (Supplementary Tables 1 and 2). Knockout strains were taken from the yeast knockout collection except for ABP1, BEM1, BZZ1, and SLA1, which were reconstructed by replacing the ORFs with the NATMX4 resistance cassette by homologous recombination in the BY4741 background.
Yeast SH3 domain genomic sequences were replaced by CRISPR–Cas9 genome editing. Each SH3 domain (as defined by the SMART database V8.0 except for Ysc84 SH3 (as defined by PROSITE), see Source Data for all SH3 sequences and Supplementary Table 1 for primers used) was specifically targeted by one gRNA[46]. Yeast competent cells were co-transformed with a pCAS plasmid (Addgene plasmid 60847[47]) expressing both the gRNA of interest and Streptococcus pyogenes Cas9[46] and a donor DNA sequence (stuffer) with 60 bp homology arms surrounding the SH3 DNA sequence. The Stuffer DNA was either PCR amplified or digested from a plasmid. The stuffer DNA sequence ([…]) codes for a small flexible linker ([…]) inspired by protein linkers used in structural biology[12],[13]. This type of linker is frequently used for fusing proteins without affecting the structure of the linked proteins.
The overall DHFR-PCA pipeline is based on Tarassov et al.[43] and the procedures have also been published as a visualized protocol. The screens were performed with robotically manipulated pin tools (BM5-SC1, S&P Robotics Inc.). First, the preys were cherry-picked from 96-well plates to omnitrays in a 384 format on YPD + HPH solid media. […]

BEM1-2 = experiment: DHFR-PCA on solid medium, bait BEM1-2 (Fig. 1B); conditions: bait BEM1-2, label = prey; for medrep (log2 median colony size normalized to plate background, PCA score): 2-8 replicates; for Ratio (SH3-deleted/WT medrep): only significant differences showed, PPIs completely lost have a ratio of 0.1 and the gained PPIs 2.5
Description: as §1

BOI1 = experiment: DHFR-PCA on solid medium, bait BOI1 (Fig. 1B); conditions: bait BOI1, label = prey
Description: as §1

BBC1 = experiment: DHFR-PCA on solid medium, bait BBC1 (Fig. 1B); conditions: bait BBC1, label = prey; for medrep (log2 median colony size normalized to plate background, PCA score): 2-4 replicates
Description: as §1

BEM1-1 = experiment: DHFR-PCA on solid medium, bait BEM1-1 (Fig. 1B); conditions: bait BEM1-1, label = prey
Description: as §1

BOI2 = experiment: DHFR-PCA on solid medium, bait BOI2 (Fig. 1B); conditions: bait BOI2, label = prey
Description: as §1

[2] = bait SLA1-3, DHFR-PCA, Replicates 4 (2 for YCR009C, YDR388W, YIL033C)
[3] = only significant differences showed, PPIs completely lost have a ratio of 0.1 and the gained PPIs 2.5

| Substance | medrep (log2 median colony size normalized to plate background, PCA score) (ABP1) | medrep (log2 median colony size normalized to plate background, PCA score) [1, 2] | Score ([1]; bait SLA1-3, label = prey) | medrep (log2 median colony size normalized to plate background, PCA score) (BEM1-2) | Ratio (SH3-deleted/WT medrep) (BEM1-2) | medrep (log2 median colony size normalized to plate background, PCA score) (BOI1; 3-8 replicates) | Ratio (SH3-deleted/WT medrep) (BOI1; [3]) | medrep (log2 median colony size normalized to plate background, PCA score) (BBC1) | Ratio (SH3-deleted/WT medrep) (BBC1; [3]) | medrep (log2 median colony size normalized to plate background, PCA score) ([1]; bait SLA1-2, DHFR-PCA, Replicates 4 (2 for YCR009C, YDR388W)) | Score ([1]; bait SLA1-2, label = prey) | Ratio (SH3-deleted/WT medrep) ([1]; bait SLA1-2, label = prey, only significant differences shown, PPIs completely lost have a ratio of 0.1, gained PPIs 2.5) | medrep (log2 median colony size normalized to plate background, PCA score) (BEM1-1; 2-8 replicates) | Ratio (SH3-deleted/WT medrep) (BEM1-1; [3]) | medrep (log2 median colony size normalized to plate background, PCA score) (BOI2; 3-8 replicates) | Ratio (SH3-deleted/WT medrep) (BOI2; [3]) |
| --- | --- | --- | --- | --- | --- | --- | --- | --- | --- | --- | --- | --- | --- | --- | --- | --- |
| YGL206C | 4.275 | 4.577 | 0 | 1.4327 | 2.5 | 1.512 | 0.1 | 1.387 | 0.4969 |  |  |  |  |  |  |  |
| YMR109W (PMFEAAYDFPGSGSPSELPLKKGDVIYITREEPSGWSLGKLLDGSKEGWVPTAYMKPHS) | 4.62 | 3.8664 | 0 | 1.531 | 0.1 |  |  | 5.231 |  | 3.8664 | 1 | 0.1 | 1.531 | 0.1 | 1.504 | 0.1 |
